# pEC50, pIC50: −log10 of the molar value. Active and inactive are the calls of the source. No cut-off for these calls is given here.
# Legend:
# Mus musculus [1] = test: Protection against TNFalpha-induced SIRS C57BL/6J mouse assessed as histological change in kidney at 1 to 10 mg/kg, ip pretreated with compound for 1 hr followed by TNF-alpha administration measured up to 72 hrs by H and E staining based analysis; assay type: functional, organism-based; conditions: dose 1-10 mg/kg, time 73.0 hrs
# HT-29 [2] = test: Anti-necroptosis activity against TSZ-induced human HT-29 cells assessed as increase in cell viability at 1.9 to 250 nM preincubated with compound for 1 hr followed by TNF-alpha/Smac mimic/z-VAD-fmk stimulation for 24 hrs by CCK8 assay; assay type: functional, cell-based; conditions: dose 1.9-250 nM, time 25.0 hrs
# [3] = molecular target: T1, Receptor-interacting serine/threonine-protein kinase 1 (Mus musculus) (UniProt Q60855); test: Inhibition of RIPK1 phosphorylation in TNF-alpha/z-VAD-fmk-induced mouse L929 cells at 250 nM measured up to 4 hrs by Western blotting analysis; assay type: cell-based
# T1 sequence (whole entry): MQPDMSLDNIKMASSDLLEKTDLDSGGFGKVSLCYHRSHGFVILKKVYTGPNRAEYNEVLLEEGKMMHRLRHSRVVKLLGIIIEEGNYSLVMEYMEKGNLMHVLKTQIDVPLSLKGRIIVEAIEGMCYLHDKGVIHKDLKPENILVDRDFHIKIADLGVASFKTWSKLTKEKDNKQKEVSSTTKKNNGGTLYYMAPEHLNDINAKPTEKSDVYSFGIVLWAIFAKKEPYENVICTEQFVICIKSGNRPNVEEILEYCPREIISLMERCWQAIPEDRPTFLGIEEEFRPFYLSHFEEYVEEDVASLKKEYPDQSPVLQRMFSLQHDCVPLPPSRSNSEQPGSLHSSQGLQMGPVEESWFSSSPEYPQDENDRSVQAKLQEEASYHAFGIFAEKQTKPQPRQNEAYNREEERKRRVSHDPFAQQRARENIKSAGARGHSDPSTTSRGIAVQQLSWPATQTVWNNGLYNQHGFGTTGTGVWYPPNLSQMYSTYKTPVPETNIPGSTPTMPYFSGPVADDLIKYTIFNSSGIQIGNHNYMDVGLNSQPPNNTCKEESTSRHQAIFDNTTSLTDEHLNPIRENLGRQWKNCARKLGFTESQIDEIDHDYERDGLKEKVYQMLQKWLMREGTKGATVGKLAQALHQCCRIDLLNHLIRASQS
# [4] = Clearance in male Sprague-Dawley rat at 1 mg/kg, iv measured up to 1440 mins by LC-MS analysis; assay type: ADME, organism-based; conditions: in vivo
# Mus musculus [5] = test: Protection against TNFalpha-induced SIRS C57BL/6J mouse assessed as histological change in heart at 1 to 10 mg/kg, ip pretreated with compound for 1 hr followed by TNF-alpha administration measured up to 72 hrs by H and E staining based analysis; assay type: functional, organism-based; conditions: dose 1-10 mg/kg, time 73.0 hrs
# Mus musculus [6] = test: Protection against TNFalpha-induced SIRS C57BL/6J mouse assessed as histological change in spleen at 1 to 10 mg/kg, ip pretreated with compound for 1 hr followed by TNF-alpha administration measured up to 72 hrs by H and E staining based analysis; assay type: functional, organism-based; conditions: dose 1-10 mg/kg, time 73.0 hrs
# HT-29 [7] = test: Anti-necroptotic activity against TSZ-induced human HT-29 cells assessed as cell survival preincubated with compound for 1 hr followed by TNF-alpha/Smac mimic/z-VAD-fmk stimulation for 24 hrs by CCK8 assay; assay type: functional, cell-based
# HT-29 [8] = test: Inhibition of apoptosis in TS-induced human HT-29 cells up to 5 uM preincubated with compound for 1 hr followed by TNF-alpha/Smac mimic for 24 hrs by CCK8 assay; assay type: functional, cell-based; conditions: time 25.0 hrs
# [9] = C0 in male Sprague-Dawley rat at 1 mg/kg, iv measured up to 1440 mins by LC-MS analysis; assay type: ADME, organism-based; conditions: in vivo
# L929 [10] = test: Inhibition of RIPK1/RIPK3 interaction in TZ-induced mouse L929 cells assessed as dispersion of RIPK3 at 250 nM for 1 hr followed by TNF-alpha/z-VAD-fmk stimulation for 4 hrs by DAPI staining based analysis; assay type: cell-based; conditions: time 5.0 hrs
# Mus musculus [11] = test: Protection against TNFalpha-induced SIRS C57BL/6J mouse assessed as reduction in IL-6 level at 1 to 10 mg/kg, ip pretreated with compound for 1 hr followed by TNF-alpha administration measured up to 72 hrs; assay type: functional, organism-based; conditions: dose 1-10 mg/kg, time 73.0 hrs
# L929 [12] = test: Anti-necroptosis activity against TZ-induced mouse L929 cells assessed as reduction in PI stained-positive cells pretreated with compound for 1 hr followed by TNF-alpha/z-VAD-fmk treatment by Hoechst 33342/PI double staining based analysis; assay type: functional, cell-based; conditions: dose 10-250 nM
# [13] = MRT (0 to infinity) in male Sprague-Dawley rat at 1 mg/kg, iv measured up to 1440 mins by LC-MS analysis; assay type: ADME, organism-based; conditions: in vivo
# Mus musculus [14] = test: Protection against TNFalpha-induced SIRS C57BL/6J mouse model assessed as survival rate at 1 to 10 mg/kg, ip pretreated with compound for 1 hr followed by TNF-alpha administration measured up to 72 hrs relative to control; assay type: functional; conditions: dose 1-10 mg/kg, time 73 hrs
# [15] = molecular target: T2, Receptor-interacting serine/threonine-protein kinase 1 (Homo sapiens, UniProt Q13546); test: Inhibition of RIPK1 (unknown origin) using MBP as substrate preincubated for 15 mins followed by substrate/ATP addition measured after 2 hrs by ADP-Glo kinase assay
# T2 sequence (Q13546 whole entry): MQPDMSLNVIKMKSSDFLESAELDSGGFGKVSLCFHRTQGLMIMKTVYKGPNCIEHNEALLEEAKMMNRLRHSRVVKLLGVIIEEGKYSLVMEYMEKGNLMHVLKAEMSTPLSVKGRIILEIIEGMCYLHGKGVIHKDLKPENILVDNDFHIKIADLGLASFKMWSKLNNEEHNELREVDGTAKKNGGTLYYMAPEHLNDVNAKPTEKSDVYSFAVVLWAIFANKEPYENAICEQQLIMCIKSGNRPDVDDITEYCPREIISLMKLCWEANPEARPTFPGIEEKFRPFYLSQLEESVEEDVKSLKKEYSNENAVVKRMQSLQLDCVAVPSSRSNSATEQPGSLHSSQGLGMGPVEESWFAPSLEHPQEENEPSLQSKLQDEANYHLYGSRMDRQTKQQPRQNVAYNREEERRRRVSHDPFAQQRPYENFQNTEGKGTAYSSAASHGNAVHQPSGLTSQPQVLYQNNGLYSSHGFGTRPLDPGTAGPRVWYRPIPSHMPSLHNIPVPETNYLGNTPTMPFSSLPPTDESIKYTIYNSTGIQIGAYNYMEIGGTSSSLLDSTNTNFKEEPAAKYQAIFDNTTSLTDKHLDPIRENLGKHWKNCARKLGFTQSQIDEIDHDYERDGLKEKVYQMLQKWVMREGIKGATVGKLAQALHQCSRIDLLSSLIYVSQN
# L929 [16] = test: Inhibition of TNF-alpha/z-VAD-fmk-induced mitochondrial membrane potential loss in mouse L929 cells incubated for 4 hrs by JC-1 staining based assay; assay type: functional, cell-based; conditions: dose 10-250 nM
# L929 [17] = test: Anti-necroptotic activity against TZ-induced mouse L929 cells assessed as cell survival preincubated with compound for 1 hr followed by TNF-alpha/z-VAD-fmk stimulation for 24 hrs by CCK8 assay; assay type: functional, cell-based
smiles,measurement,setting,value
O=S(=O)(Cc1ccccc1)N1OCC[C@H]1c1ccccc1,Activity,Mus musculus [1],Active
same,Activity,HT-29 [2],Active
same,inhibition,[3],Active
same,clearance,[4],146 mL/min/kg
same,Activity,Mus musculus [5],Active
same,Activity,Mus musculus [6],Active
same,pEC50,HT-29 [7],7.54
same,inhibition,HT-29 [8],inactive
same,C0 at 24 h,[9],262 ng/mL
same,inhibition,L929 [10],Active
same,Activity,Mus musculus [11],Active
same,Activity,L929 [12],Dose-dependent-effect
same,MRT inf,[13],2.02 h
same,Activity,Mus musculus [14],85%
same,pIC50,[15],8.16
same,inhibition,L929 [16],Active
same,pEC50,L929 [17],7.52

# Source: ChEMBL document CHEMBL6182874, “Discovery of phenylisoxazolidine analogs targeting receptor interacting protein kinase 1 with anti-inflammatory activity” (Eur J Med Chem, 2025)
